“Also recorded” adds a separate entry of the source.
Tests used:
[1] = tested on: human donor islet preparations; test: Glucose-stimulated insulin secretion in human islets; type: cell-based; conditions: cytokines (TNFα, IL-1β, IFNγ); 3 mM or 18 mM glucose
Protocol: FIGS. 3D and 3E show results from glucose-stimulated insulin secretion in human donor islet preparations in response to 3 mM glucose (Low) or 18 mM glucose (High) for control (untreated) islets. […] FIGS. 3D and 3E represent results obtained in different human donor islet preparations.

[2] = PBS buffer (pH 7.4) solubility; type: physicochemical; conditions: PBS buffer, pH 7.4, aqueous buffer
washed human platelets = test: FcγRIIa-mediated platelet aggregation; type: cell-based; conditions: ML355 20 μM, 15 minutes; anti-CD9 stimulation or IV.3 + GAM cross-linking
Description: (§1) Preparation of washed human platelets: Prior to blood collection written informed consent was obtained from all volunteers. Washed platelets were isolated from the blood of healthy volunteers as previously described (14). Washed platelets were resuspended in tyrodes buffer at 3.0×10^8 platelets/mL unless otherwise indicated.
(§2) FcγRIIa-mediated platelet activation: FcγRIIa-mediated platelet activation was initiated by two distinct models; either 1) FcγRIIa antibody cross-linking or 2) CD9 monoclonal antibody stimulation. To cross-link FcγRIIa, washed platelets were incubated with IV.3, an FcγRIIa mouse monoclonal antibody, for one minute followed by the addition of a goat anti-mouse (GAM) IgG antibody to cross-link FcγRIIa. The concentration of FcγRIIa cross-linking antibodies used for each experiment is indicated in the text. Alternatively, washed human platelets were stimulated with an anti-CD9 monoclonal antibody to activate FcγRIIa mediated signaling. Due to inter-individual variability in anti-CD9 response, a range of anti-CD9 concentration (0.25-1 μg/ml) was used to achieve an aggregation of EC80. […]
Platelet aggregation: Platelet aggregation was measured with a lumi-aggregometer (Chronolog Corp, Model 700D) under stirring conditions at 37° C.

[3] = tested on: FcγRIIa-stimulated platelets; test: Rap1 activation after FcγRIIa stimulation; type: cell-based, human; conditions: ML355 pre-treatment
Description: as §1
as §2, with “EC80. In studies using the 12-LOX inhibitor (ML355), washed platelets were incubated with either ML355 (20 μM), or DMSO (vehicle control) for 15 minutes prior to FcγRIIa stimulation.” for “EC80.”

[4] = Parallel Artificial Membrane Permeability Assay (PAMPA); conditions: PAMPA at pH 7.4
[5] = male, CD1, mouse, in vivo, intravenous, 3 mpk
[6] = male, CD1, mouse, in vivo, iv, 3 mg/kg
[7] = male, CD1, mouse, in vivo, po, 30 mg/kg

In the case of `COc1cccc(CNc2ccc(S(=O)(=O)Nc3nc4ccccc4s3)cc2)c1O` [Compound 35, N-(benzo[d]thiazol-2-yl)-4-((2-hydroxy-3-methoxybenzyl)amino)benzenesulfonamide], the “glucose-stimulated insulin secretion with cytokines” value [1] is reported as “Uncoupling of glucose-stimulated insulin secretion by cytokines is inhibited”, the solubility [2] is reported as less than 5 µg/mL and the FcγRIIa-mediated platelet aggregation (washed human platelets) is reported as “attenuated FcγRIIa-mediated platelet aggregation; also recorded: significantly attenuated aggregation”. For the same compound, the Rap1 activation [3] was “failed to activate Rap1”, the “time remaining over IC50 value” (In Vivo PK (Mouse); 30 mpk dosing) was “over 12 hours” and the “% F” value (In Vivo PK (Mouse); PO, 30 mpk) was 19.8%. It also gave a Vd (In Vivo PK (Mouse); [5]) of 0.55 L/kg, a clearance (In Vivo PK (Mouse); [5]) of 3.4 mL/min/kg and an AUC(0-inf) (In Vivo PK (Mouse); [6]) of 34 µM·h. The Cmax (In Vivo PK (Mouse); [6]) was 112 µM, the Vd (In Vivo PK (Mouse); [6]) was 0.55 L/kg and the clearance (In Vivo PK (Mouse); [6]) was 3.4 mL/min/kg. For the same compound, the half-life (In Vivo PK (Mouse); [6]) was 3.4 h, the AUC(0-inf) (In Vivo PK (Mouse); [7]) was 67 µM·h and the Cmax (In Vivo PK (Mouse); [7]) was 38 µM. For the same compound, the bioavailability (In Vivo PK (Mouse); [7]) was roughly 20%, the half-life (In Vivo PK (Mouse); [7]) was 2.9 h and the “permeability (1 × 10^−6 cm/s)” value [4] was 394^c 1 × 10^−6 cm/s.
